Species on record: Rattus norvegicus
Assay: DrugMatrix - Regimen: Daily Repeat
Assay type: toxicity, organism-based, Sprague-Dawley
Set-up: regimen Daily Repeat, gender Male, age 6-8 weeks
Details: in vivo, po, route oral GAVAGE, […]; for ABSOLUTE BASOPHIL / ABSOLUTE EOSINOPHIL / ABSOLUTE LYMPHOCYTE / ABSOLUTE MONOCYTE / ABSOLUTE SEGMENTED NEUTROPHIL / BASOPHIL / EOSINOPHIL / ERYTHROCYTE COUNT / HEMATOCRIT / HEMOGLOBIN / LEUKOCYTE COUNT / LYMPHOCYTE / MEAN CORPUSCULAR HEMOGLOBIN / MEAN CORPUSCULAR HEMOGLOBIN CONCENTRATION / MEAN CORPUSCULAR VOLUME / MONOCYTE / NEUTROPHIL / NUCLEATED RED BLOOD CELLS / PLATELET COUNT: tissue Blood; for ALANINE AMINOTRANSFERASE / ALBUMIN / ALKALINE PHOSPHATASE / ASPARTATE AMINOTRANSFERASE / BLOOD UREA NITROGEN / CARBON DIOXIDE / CHLORIDE / CHOLESTEROL / CREATINE PHOSPHOKINASE / CREATININE / GLUCOSE / LACTATE DEHYDROGENASE / LIPASE / POTASSIUM / SODIUM / TOTAL BILIRUBIN / TOTAL PROTEIN / URIC ACID: tissue Plasma
[1] = 0 mg/kg, 72 h, dose level Control, time 3 day
[2] = 0 mg/kg, 120 h, dose level Control, time 5 day
[3] = 3 mg/kg, 72 h, dose level Low, time 3 day
[4] = 3 mg/kg, 120 h, dose level Low, time 5 day

CCc1ccc(CCOc2ccc(CC3SC(=O)NC3=O)cc2)nc1 (configuration not stated) [PIOGLITAZONE]
ABSOLUTE BASOPHIL [1]: 0 CELLS/uL
ABSOLUTE EOSINOPHIL [1]: 22.83 CELLS/uL
ABSOLUTE LYMPHOCYTE [1]: 11213.33 CELLS/uL
ABSOLUTE MONOCYTE [1]: 169.83 CELLS/uL
ABSOLUTE SEGMENTED NEUTROPHIL [1]: 960.67 CELLS/uL
BASOPHIL [1]: 0%
EOSINOPHIL [1]: 0.17%
ERYTHROCYTE COUNT [1]: 5.34 x10E6/uL
HEMATOCRIT [1]: 33.62%
HEMOGLOBIN [1]: 13.17 G/DL
LEUKOCYTE COUNT [1]: 12.37 x10E3/uL
LYMPHOCYTE [1]: 90.33%
MEAN CORPUSCULAR HEMOGLOBIN [1]: 24.65 pg
MEAN CORPUSCULAR HEMOGLOBIN CONCENTRATION [1]: 39.18 G/DL
MEAN CORPUSCULAR VOLUME [1]: 62.95 fL
MONOCYTE [1]: 1.5%
NEUTROPHIL [1]: 8%
NUCLEATED RED BLOOD CELLS [1]: 0 /100WBC
ALANINE AMINOTRANSFERASE [1]: 56.67 u/L
ALBUMIN [1]: 4.55 G/DL
ALKALINE PHOSPHATASE [1]: 305.17 u/L
ASPARTATE AMINOTRANSFERASE [1]: 96.5 u/L
BLOOD UREA NITROGEN [1]: 13.5 mg/dL
CARBON DIOXIDE [1]: 31 mmol/L
CHLORIDE [1]: 101.67 MEQ/L
CHOLESTEROL [1]: 75.83 mg/dL
CREATINE PHOSPHOKINASE [1]: 345.67 u/L
CREATININE [1]: 0.28 mg/dL
GLUCOSE [1]: 142.5 mg/dL
LACTATE DEHYDROGENASE [1]: 136.67 u/L
LIPASE [1]: 10.17 u/L
POTASSIUM [1]: 5.41 MEQ/L
SODIUM [1]: 146.7 MEQ/L
TOTAL BILIRUBIN [1]: 0.13 mg/dL
TOTAL PROTEIN [1]: 6.65 G/DL
URIC ACID [1]: 0.77 mg/dL
ABSOLUTE BASOPHIL [2]: 0 CELLS/uL
ABSOLUTE EOSINOPHIL [2]: 26.33 CELLS/uL
ABSOLUTE LYMPHOCYTE [2]: 10004.33 CELLS/uL
ABSOLUTE MONOCYTE [2]: 141.33 CELLS/uL
ABSOLUTE SEGMENTED NEUTROPHIL [2]: 1161.33 CELLS/uL
BASOPHIL [2]: 0%
EOSINOPHIL [2]: 0.33%
ERYTHROCYTE COUNT [2]: 5.5 x10E6/uL
HEMATOCRIT [2]: 34.8%
HEMOGLOBIN [2]: 13.17 G/DL
LEUKOCYTE COUNT [2]: 11.33 x10E3/uL
LYMPHOCYTE [2]: 87.83%
MEAN CORPUSCULAR HEMOGLOBIN [2]: 23.95 pg
MEAN CORPUSCULAR HEMOGLOBIN CONCENTRATION [2]: 37.83 G/DL
MEAN CORPUSCULAR VOLUME [2]: 63.28 fL
MONOCYTE [2]: 1.17%
NEUTROPHIL [2]: 10.67%
NUCLEATED RED BLOOD CELLS [2]: 0 /100WBC
PLATELET COUNT [2]: 1035.33 x10E3/uL
ALANINE AMINOTRANSFERASE [2]: 36 u/L
ALBUMIN [2]: 4.63 G/DL
ALKALINE PHOSPHATASE [2]: 266.33 u/L
ASPARTATE AMINOTRANSFERASE [2]: 71.67 u/L
BLOOD UREA NITROGEN [2]: 11.33 mg/dL
CARBON DIOXIDE [2]: 30.17 mmol/L
CHLORIDE [2]: 100.83 MEQ/L
CHOLESTEROL [2]: 70.33 mg/dL
CREATINE PHOSPHOKINASE [2]: 226.17 u/L
CREATININE [2]: 0.27 mg/dL
GLUCOSE [2]: 147.83 mg/dL
LACTATE DEHYDROGENASE [2]: 111.67 u/L
LIPASE [2]: 8 u/L
POTASSIUM [2]: 5.14 MEQ/L
SODIUM [2]: 145.48 MEQ/L
TOTAL BILIRUBIN [2]: 0.1 mg/dL
TOTAL PROTEIN [2]: 6.53 G/DL
URIC ACID [2]: 0.52 mg/dL
ABSOLUTE BASOPHIL [3]: 0 CELLS/uL
ABSOLUTE EOSINOPHIL [3]: 196.67 CELLS/uL
ABSOLUTE LYMPHOCYTE [3]: 13366 CELLS/uL
ABSOLUTE MONOCYTE [3]: 155.33 CELLS/uL
ABSOLUTE SEGMENTED NEUTROPHIL [3]: 1182 CELLS/uL
BASOPHIL [3]: 0%
EOSINOPHIL [3]: 1.33%
ERYTHROCYTE COUNT [3]: 5.51 x10E6/uL
HEMATOCRIT [3]: 35.97%
HEMOGLOBIN [3]: 13.93 G/DL
LEUKOCYTE COUNT [3]: 14.9 x10E3/uL
LYMPHOCYTE [3]: 89.67%
MEAN CORPUSCULAR HEMOGLOBIN [3]: 25.3 pg
MEAN CORPUSCULAR HEMOGLOBIN CONCENTRATION [3]: 38.77 G/DL
MEAN CORPUSCULAR VOLUME [3]: 65.23 fL
MONOCYTE [3]: 1%
NEUTROPHIL [3]: 8%
NUCLEATED RED BLOOD CELLS [3]: 0 /100WBC
PLATELET COUNT [3]: 1174 x10E3/uL
ALANINE AMINOTRANSFERASE [3]: 60.33 u/L
ALBUMIN [3]: 4.03 G/DL
ALKALINE PHOSPHATASE [3]: 427.33 u/L
ASPARTATE AMINOTRANSFERASE [3]: 94.33 u/L
BLOOD UREA NITROGEN [3]: 8.67 mg/dL
CARBON DIOXIDE [3]: 32.67 mmol/L
CHLORIDE [3]: 103.67 MEQ/L
CHOLESTEROL [3]: 64.67 mg/dL
CREATINE PHOSPHOKINASE [3]: 625.67 u/L
CREATININE [3]: 0.22 mg/dL
GLUCOSE [3]: 155.67 mg/dL
LACTATE DEHYDROGENASE [3]: 125.67 u/L
LIPASE [3]: 12.33 u/L
POTASSIUM [3]: 6.21 MEQ/L
SODIUM [3]: 145.77 MEQ/L
TOTAL BILIRUBIN [3]: 0.13 mg/dL
TOTAL PROTEIN [3]: 5.33 G/DL
URIC ACID [3]: 1.63 mg/dL
ABSOLUTE BASOPHIL [4]: 0 CELLS/uL
ABSOLUTE EOSINOPHIL [4]: 37 CELLS/uL
ABSOLUTE LYMPHOCYTE [4]: 11883.67 CELLS/uL
ABSOLUTE MONOCYTE [4]: 95.33 CELLS/uL
ABSOLUTE SEGMENTED NEUTROPHIL [4]: 1150.67 CELLS/uL
BASOPHIL [4]: 0%
EOSINOPHIL [4]: 0.33%
ERYTHROCYTE COUNT [4]: 5.61 x10E6/uL
HEMATOCRIT [4]: 36.33%
HEMOGLOBIN [4]: 14.47 G/DL
LEUKOCYTE COUNT [4]: 13.17 x10E3/uL
LYMPHOCYTE [4]: 90.33%
MEAN CORPUSCULAR HEMOGLOBIN [4]: 25.8 pg
MEAN CORPUSCULAR HEMOGLOBIN CONCENTRATION [4]: 39.83 G/DL
MEAN CORPUSCULAR VOLUME [4]: 64.8 fL
MONOCYTE [4]: 0.67%
NEUTROPHIL [4]: 8.67%
NUCLEATED RED BLOOD CELLS [4]: 0 /100WBC
PLATELET COUNT [4]: 1242.33 x10E3/uL
ALANINE AMINOTRANSFERASE [4]: 58.33 u/L
ALBUMIN [4]: 4.03 G/DL
ALKALINE PHOSPHATASE [4]: 346.67 u/L
ASPARTATE AMINOTRANSFERASE [4]: 87.67 u/L
BLOOD UREA NITROGEN [4]: 13 mg/dL
CARBON DIOXIDE [4]: 30.67 mmol/L
CHLORIDE [4]: 101 MEQ/L
CHOLESTEROL [4]: 64.67 mg/dL
CREATINE PHOSPHOKINASE [4]: 464 u/L
CREATININE [4]: 0.13 mg/dL
GLUCOSE [4]: 150.33 mg/dL
LACTATE DEHYDROGENASE [4]: 542.33 u/L
LIPASE [4]: 11.33 u/L
POTASSIUM [4]: 6.64 MEQ/L
SODIUM [4]: 142.57 MEQ/L
TOTAL BILIRUBIN [4]: 0.2 mg/dL
TOTAL PROTEIN [4]: 5.7 G/DL
URIC ACID [4]: 1.57 mg/dL

From ChEMBL document CHEMBL3885881, “DrugMatrix”
